Earlier results as cited in patent publication US20230049822A1, “COMPOSITIONS COMPRISING NICLOSAMIDE FOR USE IN TREATING CONDITIONS ASSOCIATED WITH AN ABNORMAL INFLAMMATORY RESPONSE” (First Wave Bio, Inc., priority 2020, published 2023).
Structures can show the parent of a compound that is named as a salt.

Columns and labels:
[1] = test system: pathogenic T cells isolated from IBD patients; conditions: see WO 2017/040864
murine models of IBD = conditions: see WO 2017/040864

Row | solubility in acetone | solubility in ether, ethanol and chloroform | water solubility (at 20° C.) [µg/mL] | dissolves in distilled water (distilled water, 20° C.) [mg/L] | Compound | killing of pathogenic T cells [1] | efficacy in murine models of IBD (murine models of IBD)
1 | soluble | sparingly soluble | 5 to 8 |  | O=C(Nc1ccc([N+](=O)[O-])cc1Cl)c1cc(Cl)ccc1O [Niclosamide, 5-chloro-N-(2-chloro-4-nitrophenyl)-2-hydroxybenzamide] | kills pathogenic T cells | effective
2 |  |  |  | 180 to 280 | O=C(Nc1ccc([N+](=O)[O-])cc1Cl)c1cc(Cl)ccc1O [ethanolamine salt, 5-chloro-N-(2-chloro-4-nitrophenyl)-2-hydroxybenzamide with 2-aminoethanol (1:1)] |  | 
